Consider 21 molecules from ChEMBL document CHEMBL5584289, “Molecular understanding of the therapeutic potential of melanin inhibiting natural products” (RSC Med Chem, 2024).

A short description of data set [1]: Acute toxicity in zebrafish embryos assessed as lethal concentration compound measured for every 24 hrs in 96 hrs. Further details: species or system Danio rerio. The note with it: in vivo.
A short description of data set [2]: Inhibition of Artocarpus chama tyrosinase.
Data set [3] deals with T1, Mushroom tyrosinase (Agaricus bisporus) (UniProt O42713+Q00024+C7FF04+C7FF05). In words: Inhibition of mushroom tyrosinase at 25 uM using L-tyrosine as substrate incubated for 30 mins relative to control. Format: protein assay.
Data set [4] addresses T2, Mushroom tyrosinase (Agaricus bisporus, UniProt O42713+Q00024+C7FF04+C7FF05). In words: Inhibition of mushroom tyrosinase monophenolase activity. Format: protein assay.
Data set [5] can be described thus: Antioxidant activity assessed as DPPH radical scavenging activity. The class given is functional.
Data set [6] in a line: Antioxidant activity assessed as hydroxyl radical scavenging activity at 10 uM. The class given is functional.
Data set [7] in a line: Antioxidant activity assessed as interaction reducing activity with DPPH at 10 uM measured after 1 hr by absorbance based assay. The class given is functional. On the technique in general: DPPH is a stable violet radical that fades when it is reduced.
Data set [8] deals with B16-F10. The data set can be described thus: Cytotoxicity against mouse B16-F10 cells assessed as reduction in cell viability at 15 uM incubated for 72 hrs relative to control. The class given is functional.
Data set [9] deals with T1, Mushroom tyrosinase (Agaricus bisporus). In words: Inhibition of mushroom tyrosinase at 50 ug/ml relative to control. To be noted: dose 50.0 µg/ml. Format: protein assay.
Data set [10] in a line: Antioxidant activity assessed as DPPH radical scavenging activity measured after 30 mins. The class given is functional.
The nature of data set [11]: Antioxidant activity assessed as ABTS radical scavenging activity. The class given is functional.
The target of data set [12] is T2, Mushroom tyrosinase. In words: Inhibition of mushroom tyrosinase. Format: protein assay.
Another data set deals with MNT-1. In words: Antiproliferative activity against human MNT-1 cells assessed as reduction in cell viability incubated for 72 hrs by MTT assay. The note with it: MNT-1, 72 h. The class given is functional, cell-based.
For data set [13], the target named is T2, Mushroom tyrosinase. In words: Inhibition of mushroom tyrosinase diphenolase activity. Format: protein assay.
Data set [14] concerns the target T1, Mushroom tyrosinase (Agaricus bisporus). In words: Inhibition of mushroom tyrosinase at 12.5 ug/ml using L-DOPA as substrate relative to control. Format: protein assay. To be noted: dose 12.5 µg/ml.
Data set [15] has the same target. The data set can be described thus: Inhibition of mushroom tyrosinase monophenolase activity at 12.5 ug/ml using L-tyrosine as substrate relative to control. The class given is protein assay. To be noted: dose 12.5 µg/ml.
The subject of another data set is B16. The data set can be described thus: Cytotoxicity against mouse B16 cells assessed as inhibition of cell proliferation incubated for 48 hrs by MTS assay. Format: functional, cell-based. To be noted: B16, 48 h. For orientation: Formazan colour is commonly taken as a measure of viable cells.
The subject of data set [16] is B16-F10. In words: Cytotoxicity against mouse B16-F10 cells. The class given is functional, cell-based.
The subject of data set [17] is B16-F10. The data set can be described thus: Antimelanogenic activity against alpha-MSH-stimulated mouse B16-F10 cells assessed as intracellular melanin production level at 10 uM pre-incubated for 1 hrs followed by alph-MSH stimulation and measured after 72 hrs by microplate reader analysis. The note with it: time 73 hrs. Format: functional.

Values after ≈ are worked out from the molar mass of the structure shown. Peptide text beside a SMILES is read from it.

By LC50 is commonly meant the concentration lethal to half of the exposed cells or organisms. By IC50 is commonly meant the concentration that inhibits the measured activity by half. What is called inhibition is the percentage by which the read-out fell short of the control.

With `COc1c(O)c(OC)c2c(oc3c(O)cccc32)c1OC`, the LC50 at 24 h in data set [1] came to 4 µg/mL (≈ 13.8 µM).
Turning to `COc1cc2c(oc3c(O)cccc32)c(OC)c1OC`, the LC50 at 24 h in data set [1] turned out to be 37 µg/mL (≈ 135 µM).
Take `COc1cc(O)c2c(c1)OC(c1ccc(O)cc1O)CC2=O` (stereo unspecified): the IC50 in data set [2] is 38.78 µg/mL (≈ 128 µM).
In the case of `C[C@@]12C[C@@]3(O)O[C@@H](O1)[C@]1(COC(=O)c4ccccc4)[C@H]3C[C@@]12O[C@@H]1O[C@H](COC(=O)c2cc(O)c(O)c(O)c2)[C@@H](O)[C@H](O)[C@H]1O`, the inhibition in [3] was 94.9%. The molecule further registered an IC50 at Mushroom tyrosinase [4] of 0.17 µM.
As for `CC(=O)CC(=O)c1ccc(O)c(O)c1`, the IC50 in [5] (read-out: IC50) came out at 11.3 µM; in data set [6] it was 9.3 µM; in data set [7], 69.1 µM.
As to `COc1ccc2c(c1)oc1c(OC)c(O)c(OC)cc12`, in [1], the LC50 at 24 h was 30 µg/mL (≈ 109 µM).
`COc1cc2c(cc1O)[C@@H]1COc3cc(O)ccc3[C@@H]1O2`: the Activity in the data set on B16-F10 [8] is reported as 14%.
In turn, `O=C(O)CC(OC(=O)/C=C/c1ccc(O)cc1)C(=O)O` (stereo unspecified) showed an inhibition in data set [9] of 16.3%.
Regarding `NCCCC[C@H](NC(=O)[C@H](Cc1cnc[nH]1)NC(=O)CN)C(=O)O` (H-Gly-His-Lys-OH), the LC50 at 24 h in data set [1] was found to be 30 µg/mL (≈ 88.1 µM).
Regarding `O=C1O[C@H]([C@@H](O)CO)C(O)=C1O` [ASCORBIC ACID], the IC50 in data set [5] was 67.45 µg/mL; in data set [10], 5.65 µg/mL (≈ 32.1 µM); in data set [11], 44.62 µg/mL (≈ 253 µM).
The molecule `O=C(/C=C/c1ccc(O)c(O)c1)OC(C(=O)O)C(O)C(=O)O` (stereo unspecified) [CAFFEOYLTARTARIC ACID] yielded an IC50 at Mushroom tyrosinase [12] of 30 µM.
`COc1cc(O)c2c(=O)c(-c3ccc(O)cc3O)coc2c1` [CAJANIN]: in the data set with MNT-1, the IC50 was found to be 1 µM.
For the molecule `Oc1cc(O)c2c(c1)O[C@H](c1ccc(O)c(O)c1)[C@@H](O)C2` [CIANIDANOL], the IC50 on Mushroom tyrosinase [4] is 0.06 µM; on Mushroom tyrosinase [13] it was 0.07 µM.
On to `CC1(C)[C@@H](O)CC[C@]2(C)[C@H]3C(=O)C=C4[C@@H]5C[C@@](C)(C(=O)O)CC[C@]5(C)CC[C@@]4(C)[C@]3(C)CC[C@@H]12` [ENOXOLONE], for which the IC50 in [5] stood at 7.31 µg/mL. Besides, the inhibition in data set [3] worked out at 92.6%.
As for `O=C(O)c1cc(O)c(O)c(O)c1` [GALLIC ACID], the IC50 was 1.53 µM at Mushroom tyrosinase [4] and 1.06 µM at Mushroom tyrosinase [13].
With `O=C(OC[C@H]1O[C@@H](OC(=O)c2cc(O)c(O)c(O)c2)[C@H](OC(=O)c2cc(O)c(O)c(O)c2)[C@@H](OC(=O)c2cc(O)c(O)c(O)c2)[C@@H]1OC(=O)c1cc(O)c(O)c(O)c1)c1cc(O)c(O)c(O)c1` [PENTAGALLOYL GLUCOSE], the IC50 at Mushroom tyrosinase [4] and against Mushroom tyrosinase [13] was 0.02 µM throughout.
On to `C=C(CC[C@@H](C(=O)O)[C@H]1[C@H](O)C[C@@]2(C)C3=CC[C@@H](C(=C)C)[C@](C)(CCC(=O)O)C3=CC[C@]12C)C(C)C` [PORICOIC ACID A], for which the inhibition in [14] came out at 40.9%; in data set [15], 39.5%. For the same molecule, the IC50 with B16 turned out to be 48 µg/mL (≈ 96.3 µM).
For the molecule `COc1c(O[C@@H]2O[C@H](CO)[C@@H](O)[C@H](O)[C@H]2O)cc2occ(-c3ccc(O)cc3)c(=O)c2c1O` [TECTORIDIN], the figures for the IC50 (against Mushroom tyrosinase [12]; in data set [10]; in data set [11]) were 2.62 µg/mL, 69.36 µg/mL (≈ 150 µM) and 135.31 µg/mL (≈ 293 µM), respectively.
Regarding `COc1c(O)cc2occ(-c3ccc(O)cc3)c(=O)c2c1O` [TECTORIGENIN], the IC50 turned out to be 1.39 µg/mL at Mushroom tyrosinase [12], 46.34 µg/mL (≈ 154 µM) in [10] and 45.6 µg/mL (≈ 152 µM) in data set [11].
Molecule `Cc1ccc(C(C)C)c(O)c1` [THYMOL] yielded an IC50 with B16-F10 [16] of 160 µM.
With `C/C1=C\CC(C)(C)/C=C/C(=O)/C(C)=C/CC1` [ZERUMBONE], the Activity in the data set on B16-F10 [17] stood at 40%.
